Data taken from patent US10072005B2, “4-azaindole derivatives” (EISAI R&D MANAGEMENT CO., LTD., priority 2013, dated 2018).

Target: mAChR M1 (Homo sapiens, UniProt P11229)
Test: In vitro cellular calcium flux assay, positive allosteric modulation of mAChR M1
Type: cell-based
Settings: for pEC50 for positive allosteric modulation: BHK cells expressing mAChR M1, EC20 carbachol, Examples 76-80 and 82-89 slightly modified procedure
Protocol: Baby hamster kidney cells stably expressing human or rat mAChR M1 to M5 were utilised for primary and selectivity profiling activities. mAChR M2 and M4 cell lines also stably expressed the chimeric Gαqi5 G-protein.
Human mAChR M1, M3, M5 and rat M1 cells were grown in low glucose Dulbecco's Modified Eagle's Medium (DMEM) medium plus heat inactivated 10% fetal bovine serum (HI FBS) and 500 μg/ml hygromycin B^1. Human mAChR M2 and M4 cells were maintained as above with^2 the addition of 500 μg/ml G418 to the media. Cells were maintained in culture at 37° C./5% CO2 and passaged twice weekly by treatment with 0.05% Trypsin/EDTA detachment solution, centrifugation (200 g, 5 min) and re-suspension in fresh media. Following cell expansion, cells were cryopreserved at −80° C. by treatment with 0.05% Trypsin/EDTA detachment solution, centrifugation (200 g, 5 min) and re-suspension of the pellet in freezing media (90% HI FBS/10% DMSO^3) at 15E6 cells/ml^4.
Prior to assaying, cells were prepared by thawing at 37° C. in a water bath, centrifugation (200 g, 5 min) and re-suspension of the pellet in fresh media. 15000 cells per well were seeded in black, clear bottomed 384-well Greiner Bio-One plates in plating medium (DMEM/10% HI FBS) and incubated overnight at 37 C/5% CO2.
On the day of the assay, media was removed from each well and replaced with 50 μl^5 assay buffer (HBSS with 20 mM HEPES and 2.5 mM Probenecid) containing the calcium indicator, Calcium 4 (Molecular Devices). Cells were then incubated at 37° C./5% CO2 for 30 min and at room temperature.
Compound preparation was carried out by generation of 11-point, 1 in 3 serial dilution concentration response curves in 100% DMSO. Compound was then diluted 1 in 65^6 with assay buffer (HBSS with 20 mM HEPES and 2.5 mM Probenecid) prior to the addition of 10 ul^7 to the cells using a Tetra fluorometric imaging plate reader (Molecular Devices)^8. Compound driven increases in intracellular calcium flux was measured as an increase in fluorescence (494Ex, 516Em)^9.
Positive allosteric modulator pEC50 values and antagonist pIC50 values for each compound were then determined. […] The points of modification and the alternate reagents, concentrations or equipment employed in these examples were: ^1200 μg/ml hygromycin B; ^2G418 not added; ^3CELLBANKER 1; ^410E6; ^5 40 μl; ^6 1 in 99; ^7 20 μl; ^8FDSS6000 (Hamamatsu Photonics); ^9(480Ex, 540Em); ^10Spotfire (TIBCO).

Sequence of mAChR M1 (P11229 whole entry, looked up): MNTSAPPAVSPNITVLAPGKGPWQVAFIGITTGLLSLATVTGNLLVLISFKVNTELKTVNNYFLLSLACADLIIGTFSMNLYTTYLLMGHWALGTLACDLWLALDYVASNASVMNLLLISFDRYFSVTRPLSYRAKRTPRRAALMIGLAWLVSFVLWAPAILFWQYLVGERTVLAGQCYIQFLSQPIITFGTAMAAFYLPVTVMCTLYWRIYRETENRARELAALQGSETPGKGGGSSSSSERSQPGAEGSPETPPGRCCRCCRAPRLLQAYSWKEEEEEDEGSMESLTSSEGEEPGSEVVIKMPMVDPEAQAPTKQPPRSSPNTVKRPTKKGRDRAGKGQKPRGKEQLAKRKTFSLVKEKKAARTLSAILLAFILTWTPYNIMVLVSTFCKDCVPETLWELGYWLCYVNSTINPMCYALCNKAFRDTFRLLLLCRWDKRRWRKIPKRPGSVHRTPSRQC

With `Cc1cc(-c2ccc(Cn3cc(C(=O)N[C@H]4CCCC[C@@H]4O)c4ncccc43)c(F)c2)ccn1` [Example 45, 1-(2-Fluoro-4-(2-methylpyridin-4-yl)benzyl)-N-((1S,2S)-2-hydroxycyclohexyl)-1H-pyrrolo[3,2-b]pyridine-3-carboxamide] the “pEC50 for positive allosteric modulation” value was 7.5.

With `O=C(NC1CCCCC1)c1cn(Cc2ccc(-n3cccn3)cc2)c2cccnc12` [Example 50, 1-(4-(1H-Pyrazol-1-yl)benzyl)-N-cyclohexyl-1H-pyrrolo[3,2-b]pyridine-3-carboxamide] the “pEC50 for positive allosteric modulation” value was 6.4.

`O=C(NC1CCC(F)(F)CC1)c1cn(Cc2ccc(-n3cccn3)cc2)c2cccnc12` [Example 51, 1-(4-(1H-Pyrazol-1-yl)benzyl)-N-(4,4-difluorocyclohexyl)-1H-pyrrolo[3,2-b]pyridine-3-carboxamide] was tested, and the “pEC50 for positive allosteric modulation” value was 6.3.

`O=C(N[C@H]1CCCNC1)c1cn(Cc2ccc(-n3cccn3)cc2)c2cccnc12` [Example 52, (S)-1-(4-(1H-Pyrazol-1-yl)benzyl)-N-(piperidin-3-yl)-1H-pyrrolo[3,2-b]pyridine-3-carboxamide] was tested, and the “pEC50 for positive allosteric modulation” value was 6.7.

With `O=C(N[C@@H]1CCCNC1)c1cn(Cc2ccc(-n3cccn3)cc2)c2cccnc12` [Example 53, (R)-1-(4-(1H-Pyrazol-1-yl)benzyl)-N-(piperidin-3-yl)-1H-pyrrolo[3,2-b]pyridine-3-carboxamide] the “pEC50 for positive allosteric modulation” value was 6.2.

For `CN1CCC[C@H](NC(=O)c2cn(Cc3ccc(-n4cccn4)cc3)c3cccnc23)C1` [Example 54, (S)-1-(4-(1H-Pyrazol-1-yl)benzyl)-N-(1-methylpiperidin-3-yl)-1H-pyrrolo[3,2-b]pyridine-3-carboxamide], the “pEC50 for positive allosteric modulation” value was 7.5.

In the case of `CN1CCC[C@@H](NC(=O)c2cn(Cc3ccc(-n4cccn4)cc3)c3cccnc23)C1` [Example 55, (R)-1-(4-(1H-Pyrazol-1-yl)benzyl)-N-(1-methylpiperidin-3-yl)-1H-pyrrolo[3,2-b]pyridine-3-carboxamide], the “pEC50 for positive allosteric modulation” value is reported as 6.7.

With `O=C(N[C@H]1CCCC[C@@H]1O)c1cn(Cc2ccc(Br)cc2)c2cccnc12` [Example 56, 1-(4-Bromobenzyl)-N-((1S,2S)-2-hydroxycyclohexyl)-1H-pyrrolo[3,2-b]pyridine-3-carboxamide] the “pEC50 for positive allosteric modulation” value was 6.5.

With `Cn1cc(-c2ccc(Cn3cc(C(=O)N[C@H]4CCCC[C@@H]4O)c4ncccc43)cc2)cn1` [Example 57, N-((1S,2S)-2-Hydroxycyclohexyl)-1-(4-(1-methyl-1H-pyrazol-4-yl)benzyl)-1H-pyrrolo[3,2-b]pyridine-3-carboxamide] the “pEC50 for positive allosteric modulation” value was 7.6.

`COc1ccc(Cn2cc(C(=O)N[C@H]3CCCC[C@@H]3O)c3nccc(Cl)c32)cc1` [Example 58, 7-Chloro-N-((1S,2S)-2-hydroxycyclohexyl)-1-(4-methoxybenzyl)-1H-pyrrolo[3,2-b]pyridine-3-carboxamide] was tested, and the “pEC50 for positive allosteric modulation” value was 7.7.

`Cc1ccnc2c(C(=O)N[C@H]3CCCC[C@@H]3O)cn(Cc3ccc(Cl)nc3)c12` [Example 59, 1-((6-Chloropyridin-3-yl)methyl)-N-((1S,2S)-2-hydroxycyclohexyl)-7-methyl-1H-pyrrolo[3,2-b]pyridine-3-carboxamide] was tested, and the “pEC50 for positive allosteric modulation” value was 7.4.

With `Cc1ccnc2c(C(=O)N[C@H]3CCCC[C@@H]3O)cn(Cc3ccc(Cl)cc3)c12` [Example 60, 1-(4-Chlorobenzyl)-N-((1S,2S)-2-hydroxycyclohexyl)-7-methyl-1H-pyrrolo[3,2-b]pyridine-3-carboxamide] the “pEC50 for positive allosteric modulation” value was 7.8.

With `Cc1ccc(Cn2cc(C(=O)N[C@H]3CCCC[C@@H]3O)c3nccc(Cl)c32)nc1` [Example 61, 7-Chloro-N-((1S,2S)-2-hydroxycyclohexyl)-1-((5-methylpyridin-2-yl)methyl)-1H-pyrrolo[3,2-b]pyridine-3-carboxamide] the “pEC50 for positive allosteric modulation” value was 7.0.

With `Cc1ccc(Cn2cc(C(=O)N[C@H]3CCCC[C@@H]3O)c3nccc(Cl)c32)cn1` [Example 62, 7-Chloro-N-((1S,2S)-2-hydroxycyclohexyl)-1-((6-methylpyridin-3-yl)methyl)-1H-pyrrolo[3,2-b]pyridine-3-carboxamide] the “pEC50 for positive allosteric modulation” value was 7.4.

In the case of `Cc1ccc(Cn2cc(C(=O)N[C@H]3CCCC[C@@H]3O)c3nccc(C)c32)cc1` [Example 63, N-((1S,2S)-2-Hydroxycyclohexyl)-7-methyl-1-(4-methylbenzyl)-1H-pyrrolo[3,2-b]pyridine-3-carboxamide], the “pEC50 for positive allosteric modulation” value is reported as 7.6.

In the case of `Cc1ccc(Cn2cc(C(=O)N[C@H]3CCCC[C@@H]3O)c3nccc(C)c32)nc1` [Example 64, N-((1S,2S)-2-Hydroxycyclohexyl)-7-methyl-1-((5-methylpyridin-2-yl)methyl)-1H-pyrrolo[3,2-b]pyridine-3-carboxamide], the “pEC50 for positive allosteric modulation” value is reported as 7.2.

In the case of `Cc1ccnc2c(C(=O)N[C@H]3CCCC[C@@H]3O)cn(Cc3cccc(F)c3)c12` [Example 65, 1-(3-Fluorobenzyl)-N-((1S,2S)-2-hydroxycyclohexyl)-7-methyl-1H-pyrrolo[3,2-b]pyridine-3-carboxamide], the “pEC50 for positive allosteric modulation” value is reported as 7.7.

In the case of `COc1ccc(Cn2cc(C(=O)N[C@H]3CCCC[C@@H]3O)c3nccc(C)c32)cc1C` [Example 66, N-((1S,2S)-2-Hydroxycyclohexyl)-1-(4-methoxy-3-methylbenzyl)-7-methyl-1H-pyrrolo[3,2-b]pyridine-3-carboxamide], the “pEC50 for positive allosteric modulation” value is reported as 7.9.

For `COc1ccc(Cn2cc(C(=O)N[C@H]3CCCC[C@@H]3O)c3nccc(C)c32)cn1` [Example 67, N-((1S,2S)-2-Hydroxycyclohexyl)-1-((6-methoxypyridin-3-yl)methyl)-7-methyl-1H-pyrrolo[3,2-b]pyridine-3-carboxamide], the “pEC50 for positive allosteric modulation” value was 7.5.

`COc1ccc(Cn2cc(C(=O)N[C@H]3CCCC[C@@H]3O)c3nccc(Cl)c32)cn1` [Example 68, 7-Chloro-N-((1S,2S)-2-hydroxycyclohexyl)-1-((6-methoxypyridin-3-yl)methyl)-1H-pyrrolo[3,2-b]pyridine-3-carboxamide] was tested, and the “pEC50 for positive allosteric modulation” value was 7.7.

`COc1cc(Cn2cc(C(=O)N[C@H]3CCCC[C@@H]3O)c3nccc(Cl)c32)ccn1` [Example 69, 7-Chloro-N-((1S,2S)-2-hydroxycyclohexyl)-1-((2-methoxypyridin-4-yl)methyl)-1H-pyrrolo[3,2-b]pyridine-3-carboxamide] was tested, and the “pEC50 for positive allosteric modulation” value was 8.0.

In the case of `N#Cc1ccc(Cn2cc(C(=O)N[C@H]3CCCC[C@@H]3O)c3nccc(Cl)c32)cn1` [Example 70, 7-Chloro-1-((6-cyanopyridin-3-yl)methyl)-N-((1S,2S)-2-hydroxycyclohexyl)-1H-pyrrolo[3,2-b]pyridine-3-carboxamide], the EC50 is reported as 100 nM.

`COc1cc(Cn2cc(C(=O)N[C@H]3CCCC[C@@H]3O)c3nccc(C)c32)ccn1` [Example 71, N-((1S,2S)-2-Hydroxycyclohexyl)-1-((2-methoxypyridin-4-yl)methyl)-7-methyl-1H-pyrrolo[3,2-b]pyridine-3-carboxamide] was tested, and the “pEC50 for positive allosteric modulation” value was 7.9.

For `Cn1cc(Cn2cc(C(=O)N[C@H]3CCCC[C@@H]3O)c3nccc(Cl)c32)cn1` [Example 72, 7-Chloro-N-((1S,2S)-2-hydroxycyclohexyl)-1-((1-methyl-1H-pyrazol-4-yl)methyl)-1H-pyrrolo[3,2-b]pyridine-3-carboxamide], the “pEC50 for positive allosteric modulation” value was 7.8.
